Data published in the supplement of paper PMC10307832.

Compound: N[C@@H]1CCCN(c2c(/C=C3\SC(=O)NC3=O)cccc2-c2ccccc2)C1 [AZD1208] + Nc1nc2[nH]cc(CCc3ccc(C(=O)N[C@@H](CCC(=O)O)C(=O)O)cc3)c2c(=O)[nH]1 [Pemetrexed] (partner 0.2 µM)
Test: relative viability (nuclei count vs DMSO), 5 days (fraction); higher = more cells survive
Conditions: first compound 0.08 µM
How it was run: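 Lung cancer cell lines were seeded in 1536-well plates and dosed by pin tool the next day, with either a single drug or a fixed anchor-drug dose combined with five library-drug doses (not always all listed) spaced in √10 steps. Five days later, one step fixed the cells and stained their nuclei (final 0.05% Triton X-100, 1% formaldehyde, 1 ug/ml Hoechst), and nuclei were counted on 4× images. Relative viability is the nuclei count in treated wells divided by the count in vehicle wells, and each value is the median of duplicate plates.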

| Cell Line | relative viability |
| --- | --- |
| PC-14 | 0.125 |
| LCLC-103H | 0.453 |
| NCI-H596 | 0.523 |
| NCI-H2228 | 0.328 |
| EMC-BAC-2 | 0.462 |
| NCI-H2087 | 0.664 |
| HCC-366 | 0.182 |
| NCI-H1666 | 0.826 |
| NCI-H647 | 0.19 |
| LK-2 | 0.344 |
| NCI-H2126 | 0.649 |
| NCI-H2342 | 0.869 |
| SK-MES-1 | 0.993 |
| H3255 | 0.591 |
| COR-L23 | 0.188 |
| COR-L 105 | 1.1 |
| LOU-NH91 | 0.357 |
| ChaGo-K-1 | 0.269 |
| NCI-H2170 | 0.244 |
| HCC-44 | 0.636 |
| SW 900 | 0.475 |
| NCI-H1648 | 0.626 |
| NCI-H650 | 0.893 |
| NCI-H1792 | 0.912 |
| NCI-H1563 | 0.762 |
| NCI-H358 | 0.153 |
| NCI-H661 | 0.956 |

Same assay, conditions: first compound 0.253 µM

| Cell Line | relative viability |
| --- | --- |
| NCI-H522 | 0.986 |
| NCI-H838 | 0.26 |
| NCI-H1650 | 0.421 |
| NCI-H2009 | 1.03 |
| NCI-H1993 | 0.527 |
| PC-14 | 0.132 |
| LCLC-103H | 0.46 |
| NCI-H596 | 0.507 |
| NCI-H2228 | 0.368 |
| EMC-BAC-2 | 0.474 |
| NCI-H2087 | 0.713 |
| HCC-366 | 0.206 |
| NCI-H1666 | 0.874 |
| NCI-H647 | 0.195 |
| LK-2 | 0.25 |
| NCI-H2126 | 0.734 |

| Cell Line | relative viability |
| --- | --- |
| NCI-H2342 | 0.749 |
| SK-MES-1 | 0.999 |
| H3255 | 0.577 |
| COR-L23 | 0.193 |
| COR-L 105 | 0.982 |
| LOU-NH91 | 0.409 |
| ChaGo-K-1 | 0.261 |
| NCI-H2170 | 0.289 |
| HCC-44 | 0.592 |
| SW 900 | 0.443 |
| NCI-H1648 | 0.629 |
| NCI-H650 | 0.939 |
| NCI-H1792 | 1.11 |
| NCI-H1563 | 0.764 |
| NCI-H358 | 0.181 |
| NCI-H661 | 0.9 |

Same assay, conditions: first compound 0.8 µM

| Cell Line | relative viability |
| --- | --- |
| NCI-H522 | 0.979 |
| NCI-H838 | 0.243 |
| NCI-H1650 | 0.368 |
| NCI-H2009 | 0.917 |
| NCI-H1993 | 0.526 |
| PC-14 | 0.14 |
| LCLC-103H | 0.51 |
| NCI-H596 | 0.537 |
| NCI-H2228 | 0.357 |
| EMC-BAC-2 | 0.511 |
| NCI-H2087 | 0.475 |
| HCC-366 | 0.194 |
| NCI-H1666 | 0.792 |
| NCI-H647 | 0.17 |
| NCI-H2126 | 0.652 |
| NCI-H2342 | 0.699 |
| SK-MES-1 | 0.956 |
| H3255 | 0.597 |
| COR-L23 | 0.195 |
| COR-L 105 | 1.01 |
| LOU-NH91 | 0.421 |
| ChaGo-K-1 | 0.293 |
| NCI-H2170 | 0.688 |
| HCC-44 | 0.62 |
| SW 900 | 0.454 |
| NCI-H1648 | 0.814 |
| NCI-H650 | 0.893 |
| NCI-H1563 | 0.734 |
| NCI-H358 | 0.167 |
| NCI-H661 | 0.94 |

Same assay, conditions: first compound 2.53 µM

| Cell Line | relative viability |
| --- | --- |
| NCI-H522 | 0.824 |
| NCI-H838 | 0.26 |
| NCI-H1650 | 0.401 |
| NCI-H2009 | 1.11 |
| NCI-H1993 | 0.568 |
| PC-14 | 0.153 |
| LCLC-103H | 0.43 |
| NCI-H596 | 0.498 |
| NCI-H2228 | 0.371 |
| EMC-BAC-2 | 0.524 |
| NCI-H2087 | 0.649 |
| HCC-366 | 0.581 |
| NCI-H1666 | 0.823 |
| NCI-H647 | 0.188 |
| LK-2 | 0.219 |
| NCI-H2126 | 0.634 |

| Cell Line | relative viability |
| --- | --- |
| NCI-H2342 | 0.738 |
| SK-MES-1 | 0.842 |
| H3255 | 0.524 |
| COR-L23 | 0.206 |
| COR-L 105 | 1.2 |
| LOU-NH91 | 0.357 |
| ChaGo-K-1 | 0.261 |
| NCI-H2170 | 0.275 |
| HCC-44 | 0.688 |
| SW 900 | 0.472 |
| NCI-H1648 | 0.891 |
| NCI-H650 | 0.703 |
| NCI-H1792 | 0.698 |
| NCI-H1563 | 0.705 |
| NCI-H358 | 0.173 |
| NCI-H661 | 0.942 |

Same assay, conditions: first compound 8 µM

| Cell Line | relative viability |
| --- | --- |
| NCI-H522 | 0.828 |
| NCI-H838 | 0.228 |
| NCI-H1650 | 0.478 |
| NCI-H2009 | 1.06 |
| NCI-H1993 | 0.413 |
| PC-14 | 0.165 |
| LCLC-103H | 0.477 |
| NCI-H596 | 0.407 |
| NCI-H2228 | 0.344 |
| EMC-BAC-2 | 0.54 |
| NCI-H2087 | 0.627 |
| HCC-366 | 0.223 |
| NCI-H1666 | 0.896 |
| NCI-H647 | 0.165 |
| LK-2 | 0.163 |
| NCI-H2126 | 0.614 |

| Cell Line | relative viability |
| --- | --- |
| NCI-H2342 | 0.568 |
| SK-MES-1 | 0.864 |
| H3255 | 0.598 |
| COR-L23 | 0.194 |
| COR-L 105 | 1.08 |
| LOU-NH91 | 0.434 |
| ChaGo-K-1 | 0.25 |
| NCI-H2170 | 0.268 |
| HCC-44 | 0.639 |
| SW 900 | 0.469 |
| NCI-H1648 | 1.07 |
| NCI-H650 | 0.867 |
| NCI-H1792 | 0.556 |
| NCI-H1563 | 0.768 |
| NCI-H358 | 0.145 |
| NCI-H661 | 0.955 |
